Assay results from US20250134875A1, “FORMULATIONS OF ALK-5 KINASE INHIBITORS AND USES THEREOF” (Thirona Bio, Inc., priority 2023, published 2025).
Values after ≈ are worked out from the molar mass of the structure shown.

Tests used:
[1] = test system: surgical incision-induced dermal fibrosis; experiment: Surgical incision-induced dermal fibrosis model: clinical signs, visual assessment, histology; assay type: in vivo, Göttingen minipig
Method: . Therefore, a model of surgical incision-induced dermal fibrosis was established in minipigs and the effects of topical Compound 1 were evaluated by visual assessment, histologic examination and gene expression by RNA sequencing.
The study was conducted in 4 female Göttingen SPF minipigs. On Day 1, eight full thickness incisional wounds, four on each side, were performed on each animal. […]. All animals received a dose volume of 160 μl per wound ([…] applied to a 32 cm2 area surrounding each incision). Clinical signs, visual observations of incisions, body weight and food consumption were recorded during the in-life period. At necropsy (Day 21) two biopsies were collected from each incision for histopathology and gene expression analysis.
For histopathology, a 0.8 cm punch biopsy was collected from the incisional wounds. The biopsies were divided into two, diagonal to the incisional wound. All biopsies were individually fixed in phosphate buffered neutral 4% formaldehyde. Following fixation, all incisional wound biopsies collected for microscopic examination were trimmed and processed. The specimens were embedded in paraffin and cut at a nominal thickness of approximately […], stained with haematoxylin and eosin, and examined by light microscopy.

[2] = Solubility assessment in solvent and excipient systems (formulated systems); assay type: physicochemical; conditions: 25° C.
Excerpt: Table 5 provides the solubility of Compound 1 in various solvents and excipient systems to analyze the topical systems to be utilized with the formulations.

[3] = Excipient compatibility / stability study (HPLC, 2 weeks); assay type: physicochemical; conditions: for Loss of Compound 1 on storage / Stability conclusion: 2 weeks; for Stability conclusion: RT, 40 and 50° C.
Method: Stability studies were conducted to evaluate compatibility and stability of Compound 1 with some of the excipients included in the solubility experiments. The stability was assessed using the validated API HPLC method after storage at room temperature (RT), 40° C. and 50° C. for 2 weeks. The summary of the data generated from these experiments is provided below in Table 6 below.

[4] = Stability studies (storage and forced degradation); assay type: physicochemical
Method: The physical solubility of the formulation is an important factor in the development of the formulation.
The active ingredient, Compound 1, is very stable, and has known stability of greater than 5 years.
The stability studies were also conducted by storing the samples under the conditions of accelerated degradation (40° C./75% RH). The stress conditions and the resulting stability of the formulation is provided below.

[5] = Solubility of Compound 1 in solvents; assay type: physicochemical
Excerpt: Tables 2 and 3 provide the solubility of the exemplary ALK-5 kinase inhibitor Compound 1 in various solvents.

Cc1cccc(-n2ncc(C)c2-c2cc3cnccc3s2)n1 [Compound 1]
Wound healing (histology: new collagen, re-epithelialisation) ([1]; Day 21): wound healing was not compromised | Adverse clinical signs ([1]; in-life period, topical 0.1%, 0.3% or 1% twice daily for 14 days): No adverse clinical signs | Fibrosis (gene expression and histology data) ([1]; topical administration): inhibits fibrosis | Max solubility of Compound 1 ([2]; Aqueous Gels, aqueous component 10-30% w/w): 1-2.7%/w | Max solubility of Compound 1 ([2]; Creams & Lotions, aqueous component 30-40% w/w): 1-1.5%/w | Max solubility of Compound 1 ([2]; Non-Aqueous Gels & Film forming solutions, aqueous component 0.0% w/w): 3-3.5%/w | Loss of Compound 1 on storage ([3]; Benzyl Alcohol +0.1% BHT, 40° C.): No Loss | Loss of Compound 1 on storage ([3]; Benzyl Alcohol +0.1% BHT, 50° C.): No Loss | Loss of Compound 1 on storage ([3]; Benzyl Alcohol +0.1% BHT, RT storage): No Loss | Stability conclusion ([3]; Benzyl Alcohol +0.1% BHT): STABLE AT ALL | Loss of Compound 1 on storage ([3]; Benzyl Alcohol, 40° C.): No Loss | Loss of Compound 1 on storage ([3]; Benzyl Alcohol, 50° C.): No Loss | Loss of Compound 1 on storage ([3]; Benzyl Alcohol, RT storage): No Loss | Stability conclusion ([3]; Benzyl Alcohol): STABLE AT ALL | Loss of Compound 1 on storage ([3]; Diethyl Sebacate, 40° C.): 3-4% loss | Loss of Compound 1 on storage ([3]; Diethyl Sebacate, 50° C.): 6% loss | Loss of Compound 1 on storage ([3]; Diethyl Sebacate, RT storage): No Loss | Stability conclusion ([3]; Diethyl Sebacate): Some Instability | Loss of Compound 1 on storage ([3]; PEG 400 + 0.1% BHT, 40° C.): No Loss | Loss of Compound 1 on storage ([3]; PEG 400 + 0.1% BHT, 50° C.): No Loss | Loss of Compound 1 on storage ([3]; PEG 400 + 0.1% BHT, RT storage): No Loss | Loss of Compound 1 on storage ([3]; PEG 400, 40° C.): 10% loss | Loss of Compound 1 on storage ([3]; PEG 400, 50° C.): ~28% loss | Loss of Compound 1 on storage ([3]; PEG 400, RT storage): No Loss | Stability conclusion ([3]; PEG 400): Unstable at > RT | Loss of Compound 1 on storage ([3]; Phenoxyethanol +0.1% BHT, 40° C.): No Loss | Loss of Compound 1 on storage ([3]; Phenoxyethanol +0.1% BHT, 50° C.): No Loss | Loss of Compound 1 on storage ([3]; Phenoxyethanol +0.1% BHT, RT storage): No Loss | Stability conclusion ([3]; Phenoxyethanol +0.1% BHT): STABLE AT ALL | Loss of Compound 1 on storage ([3]; Phenoxyethanol, 40° C.): No Loss | Loss of Compound 1 on storage ([3]; Phenoxyethanol, 50° C.): No Loss | Loss of Compound 1 on storage ([3]; Phenoxyethanol, RT storage): No Loss | Stability conclusion ([3]; Phenoxyethanol): STABLE AT ALL | Loss of Compound 1 on storage ([3]; Propylene Glycol, 40° C.): No Loss | Loss of Compound 1 on storage ([3]; Propylene Glycol, 50° C.): No Loss | Loss of Compound 1 on storage ([3]; Propylene Glycol, RT storage): No Loss | Stability conclusion ([3]; Propylene Glycol): STABLE AT ALL | Loss of Compound 1 on storage ([3]; Transcutol (DEGEE) +0.1% BHT, 40° C.): No Loss | Loss of Compound 1 on storage ([3]; Transcutol (DEGEE) +0.1% BHT, 50° C.): No Loss | Loss of Compound 1 on storage ([3]; Transcutol (DEGEE) +0.1% BHT, RT storage): No Loss | Stability conclusion ([3]; Transcutol (DEGEE) +0.1% BHT): STABLE AT ALL | Loss of Compound 1 on storage ([3]; Transcutol (DEGEE), 40° C.): No Loss | Loss of Compound 1 on storage ([3]; Transcutol (DEGEE), 50° C.): No Loss | Loss of Compound 1 on storage ([3]; Transcutol (DEGEE), RT storage): No Loss | Stability conclusion ([3]; Transcutol (DEGEE)): STABLE AT ALL | Loss of Compound 1 on storage ([3]; pH 3 Citrate buffer, 40° C.): No Loss | Loss of Compound 1 on storage ([3]; pH 3 Citrate buffer, 50° C.): No Loss | Loss of Compound 1 on storage ([3]; pH 3 Citrate buffer, RT storage): No Loss | Stability conclusion ([3]; pH 3 Citrate buffer): STABLE AT ALL | Loss of Compound 1 on storage ([3]; pH4 Citrate buffer, 40° C.): No Loss | Loss of Compound 1 on storage ([3]; pH4 Citrate buffer, 50° C.): No Loss | Loss of Compound 1 on storage ([3]; pH4 Citrate buffer, RT storage): No Loss | Stability conclusion ([3]; pH4 Citrate buffer): STABLE AT ALL | Loss of Compound 1 on storage ([3]; pH5 Citrate buffer, 40° C.): No Loss | Loss of Compound 1 on storage ([3]; pH5 Citrate buffer, 50° C.): No Loss | Loss of Compound 1 on storage ([3]; pH5 Citrate buffer, RT storage): No Loss | Stability conclusion ([3]; pH5 Citrate buffer): STABLE AT ALL | Stability of Compound 1 with excipients (summary) ([3]; solubility and compatibility experiments): relatively stable except with PEG400 and Diethyl Sebacate | Known stability of the active ingredient [4]: greater than 5 years | solubility ([5]; Cycolmethicone NF, oil or lipid): 190 µg/mL (≈ 0.62 mM) | solubility ([5]; DMSO, organic solvent or mixture): 83700 µg/mL (≈ 273 mM) | solubility ([5]; Dimethicone 100 CST, oil or lipid): 110 µg/mL (≈ 0.359 mM) | solubility ([5]; PEG 400, organic solvent or mixture): 43900 µg/mL (≈ 143 mM) | solubility ([5]; PPG-15 stearyl ether, oil or lipid): 4870 µg/mL (≈ 15.9 mM) | solubility ([5]; Transcutol (DEGEE), organic solvent or mixture): 115000 µg/mL (≈ 376 mM) | solubility ([5]; acetone, organic solvent or mixture): 38300 µg/mL (≈ 125 mM) | solubility ([5]; benzyl alcohol, organic solvent or mixture): > 300000 µg/mL | solubility ([5]; diethyl sebacate, oil or lipid): 13100 µg/mL (≈ 42.6 mM) | solubility ([5]; diisopropyl adipate, oil or lipid): 50500 µg/mL (≈ 165 mM) | solubility ([5]; ethanol, organic solvent or mixture): 30800 µg/mL (≈ 101 mM) | solubility ([5]; hexylene glycol, organic solvent or mixture): 50200 µg/mL (≈ 164 mM) | solubility ([5]; isopropyl myristate, oil or lipid): 3450 µg/mL (≈ 11.3 mM) | solubility ([5]; medium chain triglycerides, oil or lipid): 5310 µg/mL (≈ 17.3 mM) | solubility ([5]; mineral oil, oil or lipid): 540 µg/mL (≈ 1.76 mM) | solubility ([5]; octyldodecanol, oil or lipid): 5370 µg/mL (≈ 17.5 mM) | solubility ([5]; organic solvent or mixture, Propylene Glycol (PG)): 23700 µg/mL (≈ 77.4 mM) | solubility ([5]; phenethyl alcohol, organic solvent or mixture): > 300000 µg/mL | solubility ([5]; phosphate buffer, pH 6.5, aqueous buffer): 20 µg/mL (≈ 0.0653 mM) | solubility ([5]; propylene carbonate, organic solvent or mixture): 24100 µg/mL (≈ 78.7 mM) | solubility ([5]; sodium citrate buffer, pH 3, aqueous buffer, Sod.Citrate buffer (pH3)): 2190 µg/mL (≈ 7.15 mM) | solubility ([5]; sodium citrate buffer, pH 4, aqueous buffer, Sod.Citrate buffer (pH4)): 290 µg/mL (≈ 0.946 mM) | solubility ([5]; sodium citrate buffer, pH 5, aqueous buffer, Sod.Citrate buffer (pH5)): 70 µg/mL (≈ 0.228 mM) | solubility ([5]; water): 20 µg/mL (≈ 0.0653 mM)
